Assays:
[1] = test system: intracellular L. donovani amastigotes; experiment: Luminescent-based evaluation of intracellular anti-leishmanial activity in THP-1 macrophages; assay type: cell-based, Leishmania donovani; conditions: intracellular Leishmania donovani in THP1 macrophages, luminescence assay (Supplemental Table 2); read-out: Lum IC50
Method: Luminescent strains, L. donovani LV82 expressing firefly luciferase (a kind gift from Dr. Abhay Satoskar, Ohio State University) and L. mexicana (NR-51210, ATCC) expressing renilla luciferase were used to evaluate the effect of the compounds in intracellular and extracellular conditions. Wild-type L. donovani LV82 (ATCC) were used for Giemsa staining based experiments. All parasites were cultured at 25°C and 5% CO2 in M199 media (Corning) supplemented with 10% FBS, 1% penicillin/streptomycin, and hemin (0.01 mg/mL), and used in experiments up to passage 15.
THP-1 cells were seeded in a 96 well plate (25,000 cells/well) overnight then differentiated with 150 nM phorbol 12-myristate 13-acetate (PMA) over 72 hours (Supplemental Figure 1). […] Briefly, promastigotes of a known cell density were resuspended in RPMI media (with 10% FBS, 1% P/S and 0.05 mM β-mercaptoethanol) and incubated with adhered THP-1 cells over 18 hours. After infection, cells were washed three times with fresh media to remove extracellular promastigotes.
Infected macrophages were then treated with compounds solubilized in DMSO ranging from 0.1-10 μM in concentrations. After 72 hours of treatment, the viability of the amastigotes within macrophages was determined using Promega firefly luminescence assay (Cat E1500) or Pierce Renilla luciferase assay (Cat 16166) for L. donovani and L. mexicana strains, respectively. Briefly, media was removed, and cells were lysed with the assay lysis buffer. The luciferase substrate was then incubated with the lysed cells for 10 min at room temperature and luminescence of live Leishmania was measured in a white opaque 96 well plate using a Biotek plate reader.

[2] = test system: THP-1 macrophages; experiment: Effect of compounds on host cell viability (MTT); assay type: cell-based; conditions: read-out: 24h LC50; THP1 macrophages, 24-hour incubation, MTT assay (Supplemental Table 2)
Method: The cells were cultured at 37C, 5% CO2 in RPMI medium (ATCC) supplemented with 10% FBS, 1% Penicillin/Streptomycin and 0.05 mM of β-mercaptoethanol. Cells were used in experiments up to passage 10.
Effect of the compounds on THP-1 cell viability measured using thiazolyl blue tetrazolium bromide which measures cell metabolic activity (MTT). THP-1 cells were seeded in a 96 well plate (25,000 cells/well) overnight then differentiated with 150 nM phorbol 12-myristate 13-acetate (PMA) over 72 hours. Macrophages were then treated with compounds resuspended in RPMI media (1- 50 μM) for 24 hours. Media was replaced with thiazolyl blue tetrazolium bromide solubilized in RPMI media (0.5 mg/mL) and incubated at 37°C for 2 hours. The reduced formazan crystals were solubilized with isopropyl alcohol and the absorbance of the resulting solution was measured at 560 nm with a background subtraction at 670 nm. […] This process was repeated with a 72-hr incubation and extended concentration range (1 - 300 μM) for select compounds.

Row | Compound | IC50 [1] [µM] | CC50 [2] [µM]
1 | NC1CCN(c2ccc(-n3nc(C(F)F)cc3-c3ccc(-c4ccc(C(F)(F)F)cc4)cc3)cc2)C1 (stereo not shown) [Compound 281] | 2 | 14.3
2 | NC1CCN(c2ccc(-n3nc(C(F)(F)F)c4ccc(-c5ccc(C(F)(F)F)cc5)cc43)cc2)C1 (stereo not shown) [Compound 141] | 3.6 | 7.7
3 | CC(C)C#Cc1ccc(-c2cc(C(F)(F)F)nn2-c2ccc(N3CCC(N)C3)cc2)cc1 (stereo not shown) [Compound 98] | > 10 | 19.5
4 | Nc1ccc(-n2cc(C(F)(F)F)nc2-c2ccc(-c3ccc(C(F)(F)F)cc3)cc2)cc1 [Compound 156] | 5.8 | 20.8
5 | FC(F)(F)c1c[nH]c(-c2ccc(Oc3ccccc3)cc2)n1 [Compound 218] | > 10 | > 50
6 | FC(F)(F)c1ccc(-c2ccc(-c3cc(C(F)(F)F)nn3-c3ccc(N4CCC(NCc5ccccc5)CC4)cc3)cc2)cc1 [Compound 89] | 4 | 8
7 | Fc1cccc(CN2CCN(c3ccc(-n4nc(C(F)(F)F)cc4-c4ccc(-c5ccc(C(F)(F)F)cc5)cc4)cc3)CC2)c1 [Compound 222] | > 10 | > 50
8 | FC(F)(F)c1cc(C2CCCCC2)n(-c2ccc(NC3CCNC3)cc2)n1 (stereo not shown) [Compound 312] | 4.8 | 25.5
9 | N#Cc1ccc(CN2CC(Nc3ccc(-n4nc(C(F)(F)F)cc4C4CCCCC4)cc3)C2)cc1 [Compound 397] | 8.1 | 27.6
10 | CC(C)C#Cc1ccc(-c2cc(C(F)(F)F)nn2-c2ccc(N)cc2)cc1 [Compound 95] | > 10 | > 50
11 | c1cn(-c2ccc3nonc3c2)cn1 [Compound 207] | > 10 | > 50
12 | FC(F)(F)c1cc(-c2cccnc2)n(-c2ccc(NC3CCNC3)cc2)n1 (stereo not shown) [Compound 250] | > 10 | > 50
13 | FC(F)(F)c1cc(-c2ccc(Cl)c(Cl)c2)n(-c2ccc(Br)cc2)n1 [Compound 198] | > 10 | > 50
14 | FC(F)(F)c1cc(C2CCCCC2)n(-c2ccc(OC3CCNC3)cc2)n1 (stereo not shown) [Compound 375] | 6.3 | 12.3
15 | COc1ccc(-n2nc(C(F)(F)F)cc2-c2ccc(-c3ccc(C(F)(F)F)cc3)cc2)c(C)c1 [Compound 187] | > 10 | > 50
16 | NC1CCN(c2ccc(-n3ccnc3-c3ccc(-c4ccccc4)cc3)cc2)C1 (stereo not shown) [Compound 83] | 1.8 | 6.2
17 | COc1ccc(-n2cc(C(F)(F)F)nc2-c2ccc(-c3ccccc3)cc2)cc1 [Compound 245] | > 10 | > 50
18 | FC(F)(F)c1ccc(-c2ccc(-c3cc(C(F)(F)F)nn3-c3ccc(N4CCC(NCc5ccc(Cl)c(C(F)(F)F)c5)CC4)cc3)cc2)cc1 [Compound 120] | > 10 | > 50
19 | CC(C)(C)c1ccc(-c2nc(C(F)(F)F)cn2-c2ccc([N+](=O)[O-])cc2)cc1 [Compound 146] | 4.4 | > 50
20 | CN(C)c1ccc(-c2cc(C(F)(F)F)nn2-c2ccc(N3CCC(N)C3)cc2)cc1 (stereo not shown) [Compound 231] | 1.8 | 10.8
21 | CC(=O)c1ccc(-c2ccc(C(F)(F)F)cc2)cc1 [Compound 5] | 2.3 | 13.3
22 | CCCCCCCCNc1ccc(-n2nc(C(F)(F)F)cc2-c2ccc(-c3ccc(C(F)(F)F)cc3)cc2)cc1 [Compound 64] | > 10 | > 50
23 | NS(=O)(=O)c1ccc(-n2nc(C(F)(F)F)cc2-c2ccc(-c3ccc(C(F)(F)F)cc3)cc2)cc1 [Compound 188] | 3.1 | 9
24 | CC(C)(C)OC(=O)NC1CCN(c2ccc(-n3nc(C(F)(F)F)cc3C3CCCCC3)cc2)C1 (stereo not shown) [Compound 230] | > 10 | 9.5
25 | NCC(=O)Nc1ccc(-n2cnc3ccccc32)cc1 [Compound 150] | > 10 | > 50
26 | FC(F)(F)c1ccc(-c2ccc(-c3cc(C(F)(F)F)nn3-c3ccc(N4CC(NCc5ccccc5)C4)cc3)cc2)cc1 [Compound 112] | > 10 | 6.3
